In series [1] the test system is Sp-C expression in embryonic mouse lungs. Briefly: Sp-C (surfactant type C) expression in embryonic mouse lung explants (Q-RT-PCR). Conditions: embryonic lung cultures (FIG. 10, FIG. 11). Format: cell-based. On the procedure: Surfactant production is a measure of lung maturity, and the inability to produce surfactant is the primary cause of adult and infant respiratory distress syndrome. The increase in surfactant type C production was assessed by measuring expression of Sp-C, which encodes a protein critical for the production of surfactant.
METHODS: E13.5 old embryonic mouse lungs were dissected. Explants were grown submerged in lung explant medium (DMEM based, additives optimized for the culture of mouse lungs) for 50 hrs. They were then processed for Q-RT-PCR. Briefly, total ribonucleic acid (RNA) is isolated from the tissue and subjected to reverse transcription to generate DNA. This DNA is amplified in a polymerase chain reaction using gene-specific primers as well as primers for the ubiquitously expressed housekeeping gene GAPDH. The two primer sets are labeled with different fluorophores, allowing for quantification of both signals in the same reaction tube in a real-time PCR machine (TaqMan). When calculating the expression level of Sp-C, the specific signal is normalized to the GAPDH signal, which serves as a measure of the total DNA used in the reaction.
Steroids are known to increase lung maturation and surfactant production in animals, including humans.

Series [2] deals with Sonic hedgehog (Shh), functional hedgehog protein secreted by human cancer cell lines (human) (UniProt Q15465). Briefly: cell-based or functional assay.
Series [3] concerns human Shh. Briefly: siRNA inhibition of Shh expression in transfected HEK-293 cells (immunostaining). Format: cell-based. The conditions noted are these: for inhibition of Shh expression: 0.4 μg phShh plasmid + 20, 100 or 500 pmole siRNA, about 68 hours, anti-Shh staining (FIG. 2). How it is done: To test the effectiveness of the three siRNA antagonists, a confluent plate of HEK-293 cells were splited 1:3 and plated onto a 24-well tissue culture plate. The final density of cells was about 14,000 cells/well. Lipofectamine infection was carried out according to manufacturer's instruction. Specifically, 0.4 μg phShh^FL (a human Shh-encoding plasmid “pcDNA3.1-hShh”) and either 0, 20, 100, or 500 pmole of each annealed Shh siRNA antagonist were mixed in 25 μL of serum-free DMEM (no Pen./Strep.) with 4 μL of “Plus Reagent” for 15 minutes. At the same time, 1 μL of Lipofectamine was mixed in 25 μL of serum-free DMEM (no Pen./Strep.) with 4 μL of “Plus Reagent” for 15 minutes. At the end of the incubation, the two mixtures were combined to form complexes for 15 minutes. For each well of HEK-293 cells, the medium was changed to 200 μL of serum-free DMEM (no Pen./Strp.), and the formed complexes were then added to the respective test wells. After 3 hours of incubation at 37° C. in a 5% CO2 tissue culture incubator, 250 μL of DMEM (no Pen./Strep.) with 20% FBS were added to each well. The plate of cells were then returned to the incubator. After about 68 hours of incubation, cells in each well were fixed in 4% PFA/PAS, and stained with 1:200 dilution of rabbit anti-Shh antibody and Cy3-labeled anti-rabbit secondary antibody. […] Therefore, #1 siRNA was used for future experiments.
(§1) Next, the specificity of the inhibitory effects #1 Shh siRNA antagonist was tested against two other related Hh proteins, Ihh and Dhh. Specifically, the same HEK-293 cells were splited and seeded to a final density of about 14,000 cells/well in a 24-well tissue culture plate. The same Lipofectamine transfection as described above were carried out for each of the following combinations: • 0.4 μg of pcDNA3.1-hShh+0, 50, or 250 pmoles of siRNA #1; • 0.4 μg of pcDNA3.1-hIhh+0, 50, or 250 pmoles of siRNA #1; • 0.4 μg of pcDNA3.1-hDhh+0, 50, or 250 pmoles of siRNA #1; and, • 0.4 μg of pcDNA3.1-hShh+250 pmoles of siRNA #1 reverse strand only control.
(§2) After 2 hours of incubation with each of the complexes, the medium in each transfection well was replaced with 1 mL of fresh DMEM (no Pen./Strep.)+10% FBS, for the purpose of getting healthier cells at the end of the experiment. After 2 more days of incubation, all cells were fixed as described above, and stained with H-160 pan-Hh rabbit polyclonal antibody (Cat. No. sc-9024, Santa Cruz Biotechnology, CA) and Cy3-labeled anti-rabbit secondary antibody.

For series [4], the system named is Dhh (pcDNA3.1-hDhh). Put plainly: siRNA specificity test, Dhh expression in transfected HEK-293 cells. Format: cell-based, human. The conditions noted are these: pcDNA3.1-hDhh + 50 or 250 pmoles siRNA (FIG. 3). On the procedure:
as §1, §2

Series [5] relates to Ihh (pcDNA3.1-hIhh). Briefly: siRNA specificity test, Ihh expression in transfected HEK-293 cells. Format: cell-based, human. Conditions: pcDNA3.1-hIhh + 50 or 250 pmoles siRNA (FIG. 3). On the procedure:
as §1, §2

{P} = phosphate

Sequence of UniProt Q15465 (Q15465 24-197 limits assumed): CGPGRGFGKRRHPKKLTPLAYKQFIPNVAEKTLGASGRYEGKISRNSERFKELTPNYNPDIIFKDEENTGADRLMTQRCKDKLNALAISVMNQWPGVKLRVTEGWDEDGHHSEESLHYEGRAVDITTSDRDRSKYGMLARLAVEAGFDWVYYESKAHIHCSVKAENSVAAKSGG

For `C[C@]12CCC(=O)C=C1CC[C@@H]1[C@@H]2[C@@H](O)C[C@@]2(C)[C@H]1CC[C@]2(O)C(=O)CO` [hydrocortisone], the Sp-C expression entry in series [1] is recorded as “increase in Sp-C expression”.
As to Shh blocking antibody (5E1), in series [2], the inhibition of luciferase expression in S12 cells (gli-Luc assay, S12/RT-4 co-cultures), IC50 came to 0.085 µg/mL and the inhibition of luciferase expression in S12 cells (gli-Luc assay, S12/RT-4 co-cultures), IC90 came to 0.5 µg/mL.
Take “siRNA #1: siRNA duplex against human Shh; sense 5′-P cga gau guc ugc ugc uag ucc (SEQ ID NO: 5), antisense SEQ ID NO: 6 (sense CGAGAUGUCUGCUGCUAGUCC; antisense ACUAGCAGCAGACAUCUCGCC; RNA, 5' {P}, backbone not given here)”: the “inhibition of Shh expression” value in series [3] is recorded as “nearly completely inhibits Shh expression”. In addition, the “specificity for Shh as compared to Ihh and Dhh” value in series [3] (50 or 250 pmoles siRNA (FIG. 3)) is listed as “very specific for Shh”. Moreover, the “inhibition of expression of human Shh” value in series [3] (pcDNA3.1-hShh + 50 pmoles siRNA, H-160 pan-Hh staining (FIG. 3)) is “almost completely inhibited expression of human Shh”. Besides, the “inhibition of Dhh expression” value in series [4] is on record as “did not obviously inhibit Ihh or Dhh expression”. The “inhibition of Ihh expression” value in series [5] is on record as “did not obviously inhibit Ihh or Dhh expression”.
In the case of “siRNA #4: siRNA duplex against human Shh; sense 5′-P cag agu agc ccu aac cgc ucc (SEQ ID NO: 7), antisense SEQ ID NO: 8 (sense CAGAGUAGCCCUAACCGCUCC; antisense AGCGGUUAGGGCUACUCUGCC; RNA, 5' {P}, backbone not given here)”, the “inhibition of Shh expression” value in series [3] was “less pronounced”.
On the same count and under the same terms, to “siRNA #5: siRNA duplex against human Shh; sense 5′-P cgg uca agu cca gcu gaa gcc (SEQ ID NO: 9), antisense SEQ ID NO: 10 (sense CGGUCAAGUCCAGCUGAAGCC; antisense CUUCAGCUGGACUUGACCGCC; RNA, 5' {P}, backbone not given here)” belongs “slightly less effective than #1”.
